{"source": "paper PMC10412597", "about": "“Small molecule branched-chain ketoacid dehydrogenase kinase (BDK) inhibitors with opposing effects on BDK protein levels” (Nature Communications, 2023)", "set-up_in_all_cases": "Cerep Bioprint off-target panel, functional receptor agonism or antagonism", "key": {"[1]": {"target": "T1, Muscarinic 3 (Homo sapiens, UniProt P20309)", "T1 construct": "gene CHRM3", "T1 sequence (P20309 whole entry)": "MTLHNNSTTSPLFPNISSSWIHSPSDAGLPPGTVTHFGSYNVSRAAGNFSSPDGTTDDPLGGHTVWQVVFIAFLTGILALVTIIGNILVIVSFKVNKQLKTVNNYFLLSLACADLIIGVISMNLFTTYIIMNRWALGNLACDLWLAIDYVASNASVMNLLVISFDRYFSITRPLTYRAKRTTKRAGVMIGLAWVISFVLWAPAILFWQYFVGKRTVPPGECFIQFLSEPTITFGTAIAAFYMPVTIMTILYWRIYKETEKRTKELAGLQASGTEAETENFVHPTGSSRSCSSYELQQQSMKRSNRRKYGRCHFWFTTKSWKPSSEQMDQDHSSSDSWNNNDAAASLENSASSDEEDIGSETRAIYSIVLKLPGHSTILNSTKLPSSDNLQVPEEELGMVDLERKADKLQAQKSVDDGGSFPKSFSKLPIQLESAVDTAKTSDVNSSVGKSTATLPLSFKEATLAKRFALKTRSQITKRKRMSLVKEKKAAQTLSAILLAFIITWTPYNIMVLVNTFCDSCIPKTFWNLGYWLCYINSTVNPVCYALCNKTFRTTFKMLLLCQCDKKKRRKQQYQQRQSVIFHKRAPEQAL", "summary_of_the_method": "(§1)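 These are secondary selectivity data for BDK inhibitors, taken from CEREP (receptors) and kinase (ABL1) panels.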"}, "[2]": {"target": "T2, Mu Opiod (Homo sapiens, UniProt P35372)", "T2 construct": "gene OPRM1", "T2 sequence (P35372 whole entry)": "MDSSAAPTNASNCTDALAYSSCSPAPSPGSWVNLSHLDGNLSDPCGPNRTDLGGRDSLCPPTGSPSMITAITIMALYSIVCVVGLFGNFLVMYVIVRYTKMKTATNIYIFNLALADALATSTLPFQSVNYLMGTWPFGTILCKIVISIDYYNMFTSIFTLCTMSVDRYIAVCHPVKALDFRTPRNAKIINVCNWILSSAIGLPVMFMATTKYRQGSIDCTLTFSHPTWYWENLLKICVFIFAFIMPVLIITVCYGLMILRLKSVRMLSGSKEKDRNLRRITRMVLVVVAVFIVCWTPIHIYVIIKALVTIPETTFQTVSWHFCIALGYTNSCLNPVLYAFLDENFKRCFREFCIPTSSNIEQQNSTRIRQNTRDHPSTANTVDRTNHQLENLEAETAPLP", "conditions": "antagonist", "summary_of_the_method": "as §1"}, "[3]": {"target": "T3, Thyrotopin Releasing Hormone 1 (TRH1) Receptor (Homo sapiens, UniProt P34981)", "T3 construct": "gene TRHR", "T3 sequence (P34981 1-398)": "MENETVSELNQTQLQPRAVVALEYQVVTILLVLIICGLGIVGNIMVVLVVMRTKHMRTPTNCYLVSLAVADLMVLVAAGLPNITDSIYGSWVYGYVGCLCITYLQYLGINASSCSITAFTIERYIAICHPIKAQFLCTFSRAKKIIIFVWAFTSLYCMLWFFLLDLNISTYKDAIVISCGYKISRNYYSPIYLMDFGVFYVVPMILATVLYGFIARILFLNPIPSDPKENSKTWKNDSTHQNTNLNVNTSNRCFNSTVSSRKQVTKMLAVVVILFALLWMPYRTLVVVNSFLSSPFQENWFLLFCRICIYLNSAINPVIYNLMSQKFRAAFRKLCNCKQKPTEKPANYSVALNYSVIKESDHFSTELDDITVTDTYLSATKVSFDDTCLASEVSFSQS", "summary_of_the_method": "as §1"}, "[4]": {"target": "T4, Serotonin 5-HT1b Receptor (Homo sapiens, UniProt P28222)", "T4 construct": "gene HTR1B", "T4 sequence (P28222 whole entry)": "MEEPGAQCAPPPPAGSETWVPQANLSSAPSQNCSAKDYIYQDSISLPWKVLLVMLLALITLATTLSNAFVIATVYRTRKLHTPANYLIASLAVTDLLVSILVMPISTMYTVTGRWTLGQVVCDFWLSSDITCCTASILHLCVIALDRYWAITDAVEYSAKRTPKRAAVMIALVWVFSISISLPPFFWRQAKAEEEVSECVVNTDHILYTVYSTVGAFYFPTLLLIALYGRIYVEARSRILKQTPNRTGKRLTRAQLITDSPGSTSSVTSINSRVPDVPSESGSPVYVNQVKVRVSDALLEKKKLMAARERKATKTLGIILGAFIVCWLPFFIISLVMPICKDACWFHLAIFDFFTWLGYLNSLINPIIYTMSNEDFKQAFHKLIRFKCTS", "conditions": "agonist", "summary_of_the_method": "as §1"}, "[5]": {"target": "T5, Delta Opioid Receptor (Homo sapiens, UniProt P41143)", "T5 construct": "gene OPRD1", "T5 sequence (P41143 whole entry)": "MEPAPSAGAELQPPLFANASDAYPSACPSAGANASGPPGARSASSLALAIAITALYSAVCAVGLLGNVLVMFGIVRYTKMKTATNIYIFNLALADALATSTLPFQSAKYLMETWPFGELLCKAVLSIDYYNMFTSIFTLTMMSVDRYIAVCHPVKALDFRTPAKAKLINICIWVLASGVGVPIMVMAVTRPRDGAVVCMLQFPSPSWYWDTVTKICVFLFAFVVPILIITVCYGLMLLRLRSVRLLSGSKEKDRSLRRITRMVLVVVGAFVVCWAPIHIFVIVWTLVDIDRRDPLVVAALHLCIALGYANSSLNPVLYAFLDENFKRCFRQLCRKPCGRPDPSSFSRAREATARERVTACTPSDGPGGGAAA", "conditions": "agonist", "summary_of_the_method": "as §1"}, "[6]": {"target": "T6, Mu Opioid (Homo sapiens, UniProt P35372)", "T6 construct": "gene OPRM1", "T6 sequence (P35372 whole entry)": "as the sequence (P35372 whole entry) above", "conditions": "agonist", "summary_of_the_method": "as §1"}, "[7]": {"target": "T7, Dopamine 2S (Homo sapiens, UniProt P14416)", "T7 construct": "gene DRD2; short isoform (2S)", "T7 sequence (P14416 whole entry, canonical isoform)": "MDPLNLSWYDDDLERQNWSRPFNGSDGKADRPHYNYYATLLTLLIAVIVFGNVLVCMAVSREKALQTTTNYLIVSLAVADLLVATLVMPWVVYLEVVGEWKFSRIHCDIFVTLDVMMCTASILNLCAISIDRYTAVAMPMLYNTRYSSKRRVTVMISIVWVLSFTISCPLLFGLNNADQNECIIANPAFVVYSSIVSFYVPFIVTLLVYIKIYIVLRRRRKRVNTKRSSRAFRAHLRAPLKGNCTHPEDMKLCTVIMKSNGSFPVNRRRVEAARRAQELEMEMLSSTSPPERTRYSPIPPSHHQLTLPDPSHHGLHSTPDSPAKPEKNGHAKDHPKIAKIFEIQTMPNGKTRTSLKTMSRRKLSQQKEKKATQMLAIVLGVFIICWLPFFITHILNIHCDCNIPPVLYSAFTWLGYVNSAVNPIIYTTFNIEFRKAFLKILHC", "summary_of_the_method": "as §1"}, "[8]": {"target": "T8, Cannabinoid CB1 (Homo sapiens, UniProt P21554)", "T8 construct": "gene CNR1", "T8 sequence (P21554 whole entry)": "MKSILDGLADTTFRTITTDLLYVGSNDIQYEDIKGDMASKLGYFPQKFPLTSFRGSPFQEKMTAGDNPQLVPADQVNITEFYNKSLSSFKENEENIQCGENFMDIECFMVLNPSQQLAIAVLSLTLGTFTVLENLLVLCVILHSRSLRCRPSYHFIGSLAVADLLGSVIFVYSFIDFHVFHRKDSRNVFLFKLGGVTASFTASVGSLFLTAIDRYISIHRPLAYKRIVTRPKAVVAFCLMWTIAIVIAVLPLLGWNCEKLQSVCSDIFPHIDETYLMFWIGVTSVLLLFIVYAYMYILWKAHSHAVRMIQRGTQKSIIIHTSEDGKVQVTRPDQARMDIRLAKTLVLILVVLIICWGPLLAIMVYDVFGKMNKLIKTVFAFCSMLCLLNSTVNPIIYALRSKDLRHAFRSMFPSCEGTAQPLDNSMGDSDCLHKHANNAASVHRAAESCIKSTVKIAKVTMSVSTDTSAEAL", "summary_of_the_method": "as §1"}, "[9]": {"target": "T9, Neurokinin Nk1 (Homo sapiens, UniProt P25103)", "T9 construct": "gene TACR1", "T9 sequence (P25103 whole entry)": "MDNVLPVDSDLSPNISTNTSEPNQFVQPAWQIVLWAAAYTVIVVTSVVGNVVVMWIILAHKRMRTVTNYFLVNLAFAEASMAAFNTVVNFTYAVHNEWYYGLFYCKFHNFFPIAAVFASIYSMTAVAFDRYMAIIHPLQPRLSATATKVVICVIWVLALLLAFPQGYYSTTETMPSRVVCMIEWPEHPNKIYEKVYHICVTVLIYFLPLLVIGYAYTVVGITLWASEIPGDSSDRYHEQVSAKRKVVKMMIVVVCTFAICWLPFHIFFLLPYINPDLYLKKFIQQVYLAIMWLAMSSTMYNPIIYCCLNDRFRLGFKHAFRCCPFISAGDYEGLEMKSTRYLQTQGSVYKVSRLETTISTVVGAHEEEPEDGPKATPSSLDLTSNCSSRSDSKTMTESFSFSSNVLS", "conditions": "agonist", "summary_of_the_method": "as §1"}, "[10]": {"target": "T10, Histamine H2 (Homo sapiens, UniProt P25021)", "T10 construct": "gene HRH2", "T10 sequence (P25021 whole entry)": "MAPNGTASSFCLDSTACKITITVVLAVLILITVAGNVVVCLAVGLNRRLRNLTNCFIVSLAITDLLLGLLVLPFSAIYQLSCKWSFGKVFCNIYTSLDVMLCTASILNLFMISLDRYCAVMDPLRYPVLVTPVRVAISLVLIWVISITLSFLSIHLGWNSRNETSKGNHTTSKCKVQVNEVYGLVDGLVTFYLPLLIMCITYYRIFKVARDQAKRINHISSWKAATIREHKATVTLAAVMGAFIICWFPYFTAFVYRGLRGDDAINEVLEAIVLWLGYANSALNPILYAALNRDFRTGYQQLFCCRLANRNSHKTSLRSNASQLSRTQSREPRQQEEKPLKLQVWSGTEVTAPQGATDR", "conditions": "agonist", "summary_of_the_method": "as §1"}, "[11]": {"target": "T11, Muscarinic 2 (Homo sapiens, UniProt P08172)", "T11 construct": "gene CHRM2", "T11 sequence (P08172 1-466)": "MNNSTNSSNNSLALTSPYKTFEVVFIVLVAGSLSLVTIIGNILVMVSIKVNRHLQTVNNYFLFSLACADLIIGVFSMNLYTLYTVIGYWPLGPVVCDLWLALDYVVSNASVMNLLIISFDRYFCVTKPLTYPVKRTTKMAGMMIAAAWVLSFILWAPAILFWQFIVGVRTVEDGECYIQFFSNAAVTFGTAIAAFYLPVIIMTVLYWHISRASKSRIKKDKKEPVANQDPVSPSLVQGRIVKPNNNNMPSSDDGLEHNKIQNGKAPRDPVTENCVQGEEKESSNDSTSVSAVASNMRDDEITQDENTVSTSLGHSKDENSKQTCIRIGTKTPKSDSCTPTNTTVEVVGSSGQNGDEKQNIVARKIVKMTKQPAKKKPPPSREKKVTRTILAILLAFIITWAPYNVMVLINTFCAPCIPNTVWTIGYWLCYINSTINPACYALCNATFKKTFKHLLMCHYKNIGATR", "summary_of_the_method": "as §1"}, "[12]": {"target": "T12, Melanocortin MC2 Receptor (Homo sapiens, UniProt Q01718)", "T12 construct": "gene MC2R", "T12 sequence (Q01718 whole entry)": "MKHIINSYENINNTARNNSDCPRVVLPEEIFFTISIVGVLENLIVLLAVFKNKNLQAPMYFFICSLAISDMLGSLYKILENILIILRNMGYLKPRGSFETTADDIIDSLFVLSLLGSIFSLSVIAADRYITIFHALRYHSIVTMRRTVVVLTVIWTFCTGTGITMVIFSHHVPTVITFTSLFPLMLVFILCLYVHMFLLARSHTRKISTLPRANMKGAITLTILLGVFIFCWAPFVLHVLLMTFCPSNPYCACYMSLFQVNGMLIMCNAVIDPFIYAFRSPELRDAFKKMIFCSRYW", "summary_of_the_method": "as §1"}, "[13]": {"target": "T13, Adrenergic Alpha 1a Adrenoceptor (Homo sapiens, UniProt P35348)", "T13 construct": "gene ADRA1A", "T13 sequence (P35348 1-466)": "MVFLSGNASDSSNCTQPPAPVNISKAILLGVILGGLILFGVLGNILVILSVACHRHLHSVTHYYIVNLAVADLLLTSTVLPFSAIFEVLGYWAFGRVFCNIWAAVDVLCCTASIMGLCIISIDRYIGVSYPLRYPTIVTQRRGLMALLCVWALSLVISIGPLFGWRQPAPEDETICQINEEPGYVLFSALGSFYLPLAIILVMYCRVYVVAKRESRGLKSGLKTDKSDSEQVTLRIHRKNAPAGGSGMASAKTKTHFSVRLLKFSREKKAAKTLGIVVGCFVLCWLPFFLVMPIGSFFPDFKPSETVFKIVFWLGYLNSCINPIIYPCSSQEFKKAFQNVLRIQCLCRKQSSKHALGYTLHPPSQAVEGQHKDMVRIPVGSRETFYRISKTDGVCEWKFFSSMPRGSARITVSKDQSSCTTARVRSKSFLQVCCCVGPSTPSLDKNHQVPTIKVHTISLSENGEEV", "summary_of_the_method": "as §1"}}, "data": [{"smiles": "O=C(O)c1sc2cc(F)sc2c1Cl", "note": "[PF-07208254, 3-chloro-5-fluorothieno[3,2-b]thiophene-2-carboxylic acid]", "values": [{"measurement": "% (agonism) PF-07208254", "setting": "[1]; 100 µM, agonist", "result": 0, "unit": "%"}, {"measurement": "% Inhibition (antagonism) PF-07208254", "setting": "[1]; 100 µM, antagonist", "result": 18, "unit": "%"}, {"measurement": "% Inhibition (antagonism) PF-07208254", "setting": "[2]; 100 µM", "result": 2, "unit": "%"}, {"measurement": "% (agonism) PF-07208254", "setting": "[3]; 100 µM, agonist", "result": 4, "unit": "%"}, {"measurement": "% Inhibition (antagonism) PF-07208254", "setting": "[3]; 100 µM, antagonist", "result": -5, "unit": "%"}, {"measurement": "% (agonism) PF-07208254", "setting": "[4]; 100 µM", "result": 39, "unit": "%"}, {"measurement": "% (agonism) PF-07208254", "setting": "[5]; 100 µM", "result": -2, "unit": "%"}, {"measurement": "% (agonism) PF-07208254", "setting": "[6]; 100 µM", "result": 16, "unit": "%"}, {"measurement": "% (agonism) PF-07208254", "setting": "[7]; 100 µM, agonist", "result": -29, "unit": "%"}, {"measurement": "% Inhibition (antagonism) PF-07208254", "setting": "[7]; 100 µM, antagonist", "result": -7, "unit": "%"}, {"measurement": "% (agonism) PF-07208254", "setting": "[8]; 100 µM, agonist", "result": 55, "unit": "%"}, {"measurement": "% Inhibition (antagonism) PF-07208254", "setting": "[8]; 100 µM, antagonist", "result": -10, "unit": "%"}, {"measurement": "% (agonism) PF-07208254", "setting": "[9]; 100 µM", "result": -3, "unit": "%"}, {"measurement": "% (agonism) PF-07208254", "setting": "[10]; 100 µM", "result": 0, "unit": "%"}, {"measurement": "% (agonism) PF-07208254", "setting": "[11]; 100 µM, agonist", "result": 39, "unit": "%"}, {"measurement": "% Inhibition (antagonism) PF-07208254", "setting": "[11]; 100 µM, antagonist", "result": -7, "unit": "%"}, {"measurement": "% (agonism) PF-07208254", "setting": "[12]; 100 µM, agonist", "result": 0, "unit": "%"}, {"measurement": "% Inhibition (antagonism) PF-07208254", "setting": "[12]; 100 µM, antagonist", "result": -4, "unit": "%"}, {"measurement": "% (agonism) PF-07208254", "setting": "[13]; 100 µM, agonist", "result": 8, "unit": "%"}, {"measurement": "% Inhibition (antagonism) PF-07208254", "setting": "[13]; 100 µM, antagonist", "result": 21, "unit": "%"}]}, {"smiles": "CCC1(COc2ccc(-c3csc(-c4ccccc4C(=O)O)n3)cn2)CC1", "note": "[PF-07247685, 2-(4-{6-[(1-ethylcyclopropyl)methoxy]pyridin-3-yl}-1,3-thiazol-2-yl)benzoic acid]", "values": [{"measurement": "% (agonism) PF-07247685", "setting": "[1]; 10 µM, agonist", "result": -1, "unit": "%"}, {"measurement": "% Inhibition (antagonism) PF-07247685", "setting": "[1]; 10 µM, antagonist", "result": 3, "unit": "%"}, {"measurement": "% Inhibition (antagonism) PF-07247685", "setting": "[2]; 10 µM", "result": -3, "unit": "%"}, {"measurement": "% (agonism) PF-07247685", "setting": "[3]; 10 µM, agonist", "result": 4, "unit": "%"}, {"measurement": "% Inhibition (antagonism) PF-07247685", "setting": "[3]; 10 µM, antagonist", "result": 10, "unit": "%"}, {"measurement": "% (agonism) PF-07247685", "setting": "[4]; 10 µM", "result": 34, "unit": "%"}, {"measurement": "% (agonism) PF-07247685", "setting": "[5]; 10 µM", "result": -1, "unit": "%"}, {"measurement": "% (agonism) PF-07247685", "setting": "[6]; 10 µM", "result": -3, "unit": "%"}, {"measurement": "% (agonism) PF-07247685", "setting": "[7]; 10 µM, agonist", "result": -17, "unit": "%"}, {"measurement": "% Inhibition (antagonism) PF-07247685", "setting": "[7]; 10 µM, antagonist", "result": -7, "unit": "%"}, {"measurement": "% (agonism) PF-07247685", "setting": "[8]; 10 µM, agonist", "result": 39, "unit": "%"}, {"measurement": "% Inhibition (antagonism) PF-07247685", "setting": "[8]; 10 µM, antagonist", "result": -4, "unit": "%"}, {"measurement": "% (agonism) PF-07247685", "setting": "[9]; 10 µM", "result": -4, "unit": "%"}, {"measurement": "% (agonism) PF-07247685", "setting": "[10]; 10 µM", "result": 1, "unit": "%"}, {"measurement": "% (agonism) PF-07247685", "setting": "[11]; 10 µM, agonist", "result": 3, "unit": "%"}, {"measurement": "% Inhibition (antagonism) PF-07247685", "setting": "[11]; 10 µM, antagonist", "result": 2, "unit": "%"}, {"measurement": "% (agonism) PF-07247685", "setting": "[12]; 10 µM, agonist", "result": 0, "unit": "%"}, {"measurement": "% Inhibition (antagonism) PF-07247685", "setting": "[12]; 10 µM, antagonist", "result": 18, "unit": "%"}, {"measurement": "% (agonism) PF-07247685", "setting": "[13]; 10 µM, agonist", "result": 1, "unit": "%"}, {"measurement": "% Inhibition (antagonism) PF-07247685", "setting": "[13]; 10 µM, antagonist", "result": 14, "unit": "%"}]}]}
